Literature values, collected in patent US20230019058A1, “METHOD FOR THE TREATMENT OF VIRAL INFECTIONS” (Softhale NV, priority 2020, published 2023).

Experiments:
SARS-CoV-2 = details: reported by S. Matsuyama et al., read-out: effective concentration to block SARS-CoV-2 replication (EC90); cited from earlier work
influenza virus = details: reported by S. Matsuyama et al.; cited from earlier work
human coronavirus = details: cultured cells; reported by S. Matsuyama et al.; cited from earlier work
[1] = test system: respiratory syncytial virus; details: reported by S. Matsuyama et al.; cited from earlier work

Question: Which EC90 (SARS-CoV-2) does the source give for `CC(C)C(=O)OCC(=O)[C@@]12O[C@H](C3CCCCC3)O[C@@H]1C[C@H]1[C@@H]3CCC4=CC(=O)C=C[C@]4(C)[C@H]3[C@@H](O)C[C@@]12C` [ciclesonide, (11β, 16α)-16, 17-[[(R)-cyclohexylmethylene]bis(oxy)]-11-hydroxy-21-(2-methyl-1-oxopropoxy)-pregna-1,4-diene-3,20-dione] here?
Answer: The EC90 was 6.3 µM.

Question: And the “suppression of replication of influenza virus” value (influenza virus)?
Answer: The value was “did not suppress”.

Question: And the “suppression of human coronavirus replication” value (human coronavirus)?
Answer: The value was “suppressed human coronavirus replication”.

Question: What about the “suppression of replication of respiratory syncytial virus” value [1] of the same molecule?
Answer: Its value is “did not suppress”.
